According to paper PMC12316891, “A bottom-up approach to find lead compounds in expansive chemical spaces” (Communications Chemistry, 2025):

How the values were obtained:
[1] = molecular target: T1, His6-BRD4 (BD1) (Homo sapiens, UniProt O60885); assay: Surface plasmon resonance (SPR) single-dose screening; format: binding; design: key to SPR RESULT: Positive: compounds were considered as SPR hits also when their average signal was further than two standard deviations apart from the average signal of the blank samples (1% DMSO); conditions: for RUs at [10 µM]: SPR, compound 10 µM, 1% DMSO, n = 2, decimal comma; for SPR RESULT: single dose 10 µM, n = 2
T1 construct: A pET28 plasmid containing residues 44–168 of BRD4 (BD1), a 6xHis tag, a TEV protease cleavage site; made in house; host or cells: E. coli Rosetta (D3)

[2] = molecular target: T2, BRD4 (BD1) (Homo sapiens, UniProt O60885); conditions: advanced BRD4 (BD1) drug; cited from earlier work
T2 construct: A pET28 plasmid containing residues 44–168 of BRD4 (BD1), a 6xHis tag, a TEV protease cleavage site; 6xHis (N, cleaved yes); made in house; host or cells: E. coli Rosetta (D3)

[3] = molecular target: T2, BRD4 (BD1); assay: Differential scanning fluorimetry (DSF) single-dose thermal shift screening; format: binding; conditions: DSF, compound 10 µM, BRD4 (BD1) 2 µM, n = 3, decimal comma; read-out: ΔTm ºC at [10 µM]
[4] = molecular target: T2, BRD4 (BD1); assay: Competitive HTRF TR-FRET binding assay (displacement of acetylated histone H4 peptide); conditions: for IC50: read-out: TR-FRET IC50
[5] = 16-point titration 0.1 nM to 10 µM, n = 2, Negative = curve could not be fitted to a sigmoidal curve

Row | RUs at [10 µM] [1] | ΔTm at 10 µM [3] | SPR RESULT [1] | IC50 [4, 5] | Structure (SMILES) | Ki [2] | IC50 by HTRF TR-FRET, range in words ([4]; potency range or dose-response behaviour) | TR-FRET IC50 (nM) [4, 5]
1 | 116,86 ± 26,64 RUs | – | – | – | CCS(=O)(=O)Nc1ccc(Oc2ccc(F)cc2F)c(-c2cn(C)c(=O)c3[nH]ccc23)c1 [Compound 1, CCS(=O)(=O)NC1=CC(=C(C=C1)OC2=C(C=C(C=C2)F)F)C3=CN(C(=O)C4=C3C=CN4)C, reference compound] | 0.011 µM | – | –
2 | 11,06 ± 3,73 RUs | 0.43 °C | Negative | 0.213 µM | Cc1nonc1CC(=O)N1CC(CC(C)NC(=O)c2nsnc2O)C1 (stereo not shown) [Compound 90, CC(CC1CN(C1)C(=O)CC2=NON=C2C)NC(=O)C3=NSN=C3O] | – | – | –
3 | 8,08 ± 2,94 RUs | 0.44 °C | Negative | 0.579 µM | Cc1cn2cc(C(=O)NC(C)CC(C)NC(=O)c3ccsn3)sc2n1 (stereo not shown) [Compound 91, CC(CC(C)NC(=O)C1=CN2C=C(C)N=C2S1)NC(=O)C=3C=CSN3] | – | – | –
4 | 8,96 ± 1,15 RUs | 1.04 °C | Negative | 0.622 µM | COC(=O)C1(NCC(=O)Nc2nnc(C)s2)CC(C)(C)OC(C)(C)C1 [Compound 92, COC(=O)C1(CC(C)(C)OC(C)(C)C1)NCC(=O)NC2=NN=C(C)S2] | – | – | –
5 | 20,44 ± 23,06 RUs | -0.58 °C | Negative | 0.47 µM | Cc1cc(C)n2nc(CNC(=NCCCN3CCOCC3)N3CCC(NC(=O)CBr)C3)nc2n1 (stereo not shown) [Compound 93, BrCC(=O)NC1CCN(C1)C(=NCCCN2CCOCC2)NCC=3N=C4N=C(C)C=C(C)N4N3] | – | – | –
6 | 16,1 ± 0,61 RUs | 2.24 °C | Positive | 0.211 µM | CCCc1c(C(=O)N(C)C2CN(C(=O)c3cc(C)n[nH]3)C2)[nH]c(C)c1C(C)=O [Compound 96, CCCC1=C(NC(C)=C1C(=O)C)C(=O)N(C)C2CN(C2)C(=O)C3=CC(C)=NN3] | – | – | –

Row | Structure (SMILES) | RUs at [10 µM] [1] | ΔTm at 10 µM [3] | SPR RESULT [1] | IC50 [4, 5] | Ki [2] | IC50 by HTRF TR-FRET, range in words ([4]; potency range or dose-response behaviour) | TR-FRET IC50 (nM) [4, 5]
7 | Cc1ccc(-n2c(C)nnc2SCC(=O)N2CCOCCC23COC3)cc1 [Compound 94, CC1=NN=C(SCC(=O)N2CCOCCC32COC3)N1C=4C=CC(C)=CC4] | 3,87 ± 1,96 RUs | 1.19 °C | Negative | 0.0279 µM | – | low nM | –
8 | CCn1nnc2cc(C(=O)N3C[C@@H](OC(C)=O)[C@@H](n4cc(CN5CCC(O)CC5)nn4)C3)ccc21 [Compound 95, CCN1N=NC=2C=C(C=CC12)C(=O)N3C[C@@H](OC(=O)C)[C@H](C3)N4C=C(CN5CCC(O)CC5)N=N4] | 14,42 ± 2,9 RUs | 0.19 °C | Positive | – | – | – | Negative
